PubChem BioAssay AID1417 (Emory University Molecular Libraries Screening Center, 2008)

These molecules were tested against Induced myeloid leukemia cell differentiation protein Mcl-1 (Homo sapiens) (UniProt Q07820) (assay: Mcl-1 Noxa peptide disruption concentration-response – biochemical, TR-FRET, dose response (AID 1417)). Conditions: Mcl-1/Noxa peptide interaction, cell-free TR-FRET (terbium/rhodamine), 2 h; measured here: absolute IC50.
Chain of Induced myeloid leukemia cell differentiation protein Mcl-1 (Homo sapiens) (Q07820 whole entry, looked up): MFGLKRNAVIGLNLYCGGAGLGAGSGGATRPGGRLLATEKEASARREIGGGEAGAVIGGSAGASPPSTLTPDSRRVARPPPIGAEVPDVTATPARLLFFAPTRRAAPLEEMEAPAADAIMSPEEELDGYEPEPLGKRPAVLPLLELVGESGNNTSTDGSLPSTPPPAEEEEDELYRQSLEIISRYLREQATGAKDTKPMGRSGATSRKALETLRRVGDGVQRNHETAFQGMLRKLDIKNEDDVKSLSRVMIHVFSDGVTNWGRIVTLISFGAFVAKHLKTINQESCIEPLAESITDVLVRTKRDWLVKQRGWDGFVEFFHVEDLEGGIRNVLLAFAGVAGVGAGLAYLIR

Q: With COc1ccc(OCC(=O)Nc2nnc(-c3ccco3)s2)cc1 as the molecule, how does the IC50 read?
A: 3.81 µM

Q: How did the IC50 turn out when COCCN1Cc2cccc(C(=O)Nc3cccc(C)c3C)c2C1=O was run?
A: > 54 µM

Q: COc1ccc(N2CCC(CNC(=S)Nc3cccc(OC)c3)C2)cc1 (stereo unspecified) was tested. Which IC50 did it give?
A: > 54 µM

Q: O=C(/C=C\c1ccco1)c1ccc(NC(=O)c2ccco2)cc1 was tested. Which IC50 did it give?
A: 3.3 µM

Q: How did the IC50 turn out when CCOC(=O)c1c(C)oc2c1c(CN1CCN(CCO)CC1)c(O)c1ccccc12 was run?
A: < 0.4 µM

Q: Cc1ccc(N=Nc2c(N)[nH]n3c(=O)cc(-c4ccccc4)nc23)cc1 was tested. Which IC50 did it give?
A: 14 µM

Q: How did the IC50 turn out when C/C(=N\Nc1ccc(C(=O)O)cc1)c1ccc2c(c1)Nc1ccccc1S2 was run?
A: < 0.4 µM

Q: Which IC50 does the source give for Cc1ccc(C(=O)Nc2ccc(N3CCCC3)cc2)c(C)c1 here?
A: > 54 µM

Q: How did the IC50 turn out when c1cncc(C2Nc3cccc4cccc(c34)N2)c1 was run?
A: 7.27 µM

Q: Which IC50 does the source give for CCNC(=O)COC(=O)c1cc(-c2ccco2)nc2ccccc12 here?
A: 1.81 µM

Q: For Cc1c(O)ccc(/C=N/Nc2nc(-c3cccnc3)nc3ccccc23)c1O, which IC50 is on record?
A: < 0.4 µM

Q: Which IC50 does the source give for CNC(=O)NC1CCCc2ccccc21 (stereo unspecified) here?
A: > 54 µM

Q: NC(=S)n1[nH]c(-c2ccc([N+](=O)[O-])cc2)c(N=Nc2ccc(O)cc2)c1=O was tested. Which IC50 did it give?
A: 3.13 µM

Q: For Cc1ccc(/C=c2\sc3nc(-c4ccccc4Br)nn3c2=O)o1, which IC50 is on record?
A: 4.37 µM

Q: CCOC(=O)c1ccc(N=Nc2c(C)c(C#N)c(O)[nH]c2=O)cc1 was tested. Which IC50 did it give?
A: 2.84 µM

Q: How did the IC50 turn out when Cc1cc2nc(/C=C/c3nc4cc(C)c(C)cc4[nH]3)[nH]c2cc1C was run?
A: 4.54 µM

Q: With CCN(CC)S(=O)(=O)c1cccc(C(=O)N/N=C/c2ccc(O)c(O)c2O)c1 as the molecule, how does the IC50 read?
A: < 0.4 µM

Q: With CN(C)c1ccc(Nc2nc(N)c([N+](=O)[O-])c(N3CCOCC3)n2)cc1 as the molecule, how does the IC50 read?
A: < 0.4 µM

Q: How did the IC50 turn out when CC(=O)Nc1ccc(C(=O)Nc2cccc(-c3cnc4ccccc4n3)c2)cc1 was run?
A: > 54 µM

Q: O=C(NC1CCCCC1)c1sc(=S)n2c1[nH]c(=O)c1ccccc12 was tested. Which IC50 did it give?
A: 15.9 µM

Q: How did the IC50 turn out when Cc1ccc(-c2nnc3ccc(SC(C)C(=O)O)nn23)cc1 (stereo unspecified) was run?
A: 4.71 µM

Q: With CCN(CC)c1ccc(NC(=O)CCNC(=O)c2ccco2)cc1 as the molecule, how does the IC50 read?
A: > 54 µM

Q: With Cc1sccc1/C=N/NC(=O)c1cccc2ccccc12 as the molecule, how does the IC50 read?
A: > 54 µM

Q: For Cc1cccc2c1c1ccc3c(c1n2C)C(=O)C=CC3=O, which IC50 is on record?
A: < 0.4 µM

Q: With COCCNC(=O)Nc1ccc2nc(-c3ccco3)c(-c3ccco3)nc2c1 as the molecule, how does the IC50 read?
A: < 0.4 µM

Q: Which IC50 does the source give for O=C1N/C(=N/Nc2ccccc2)S/C1=C\c1ccccc1 here?
A: > 54 µM

Q: Which IC50 does the source give for CCSc1ncc(/C=N/Nc2ccc([N+](=O)[O-])cc2)n1C here?
A: 2.12 µM

Q: For CN1C(=O)/C(=C/c2ccc(-c3ccccc3[N+](=O)[O-])o2)SC1=Nc1ccc(Cl)c(C(=O)O)c1, which IC50 is on record?
A: < 0.4 µM

Q: For CCN1C(=O)/C(=C2/Sc3ccc(OC)cc3N2C)SC1=Nc1cccc(O)c1, which IC50 is on record?
A: > 54 µM

Q: How did the IC50 turn out when CC(=O)Oc1ccc(NC(=O)CSc2ccccc2)cc1 was run?
A: > 54 µM

Q: Which IC50 does the source give for COc1cc2c(cc1O)C[C@H]1NCCc3cc4c(c-2c31)OCO4 here?
A: 5.2 µM

Q: With C=C(C)C(=O)Nc1cccc(C2=NOC3(C2)C[C@@H](C(N)=O)N(C(=O)/C=C/C=C/C)C3)c1 (stereo partly specified) as the molecule, how does the IC50 read?
A: < 0.4 µM

Q: Which IC50 does the source give for CCC1(C(=O)OC)CCc2c(cc(OC)c3ccccc23)C1=O (stereo unspecified) here?
A: 48.1 µM

Q: With COCCn1nnnc1C(c1ccc(O)c(OC)c1)N1CCc2ccccc2C1 (stereo unspecified) as the molecule, how does the IC50 read?
A: < 0.4 µM

Q: CCCC1=NN2C(=N)/C(=C\c3ccc(SCc4ccco4)o3)C(=O)N=C2S1 was tested. Which IC50 did it give?
A: < 0.4 µM

Q: Which IC50 does the source give for Cc1nnc(Sc2cc(NCCCO)c([N+](=O)[O-])c3nonc23)s1 here?
A: 1.05 µM

Q: With Cc1ccc(/C=C/C(=O)Nc2ccc([N+](=O)[O-])c(NC(=O)/C=C/c3ccc(C)o3)c2)o1 as the molecule, how does the IC50 read?
A: < 0.4 µM

Q: Which IC50 does the source give for CN(C)c1ccc(CC(=O)c2nc3ccccc3s2)cc1 here?
A: 3.19 µM

Q: With CCOC(=O)c1cc(-c2ccco2)nc2c1c(C)nn2-c1cccc(Cl)c1 as the molecule, how does the IC50 read?
A: 2.36 µM

Q: How did the IC50 turn out when O=C1CC(c2ccc(O)c(O)c2)Oc2c1ccc(O)c2O (stereo unspecified) was run?
A: 2.46 µM

Q: CN(C)c1ccc(NC(=O)c2cccc(C(=O)Nc3ccc(N(C)C)cc3)n2)cc1 was tested. Which IC50 did it give?
A: 4.03 µM

Q: With CC1CCc2c(sc(Nc3nc4c(F)cccc4s3)c2C(N)=O)C1 (stereo unspecified) as the molecule, how does the IC50 read?
A: < 0.4 µM

Q: CC(=O)c1cc(O)c2ccccc2c1O was tested. Which IC50 did it give?
A: < 0.4 µM

Q: CNc1ccc(Br)cc(C(=O)/C=C/c2cccc(OC)c2)c1=O was tested. Which IC50 did it give?
A: 4.9 µM

Q: With COc1cc(SC)ccc1C(=O)N1CCN(c2ccccc2)CC1 as the molecule, how does the IC50 read?
A: > 54 µM

Q: Cn1c(N)c(C(=O)COC(=O)c2cc(-c3ccco3)nc3ccccc23)c(=O)n(C)c1=O was tested. Which IC50 did it give?
A: 3.41 µM

Q: How did the IC50 turn out when O=c1c(Cl)c(N/N=C/c2ccc(Cl)cc2)cnn1-c1ccccc1 was run?
A: 4.42 µM

Q: Cc1cc(NS(=O)(=O)c2ccc(Nc3nc(-c4sc(NC(=O)c5ccccc5)nc4C)cs3)cc2)no1 was tested. Which IC50 did it give?
A: 1.77 µM

Q: For C=CCc1cccc2cc(C(=O)Nc3ccc(S(=O)(=O)Nc4nnc(CC)s4)cc3)c(=O)oc12, which IC50 is on record?
A: 1.54 µM

Q: For Cc1cc(C(F)F)n2nc(C(=O)Nc3sc4c(c3C(N)=O)CCC4)nc2n1, which IC50 is on record?
A: 11.4 µM

Q: With O=C(Cc1csc(N2CCOCC2)n1)N/N=C/c1ccc(O)c(O)c1O as the molecule, how does the IC50 read?
A: < 0.4 µM

Q: Which IC50 does the source give for CC(/C=C1\SC(=S)N(NS(=O)(=O)c2ccccc2)C1=O)=C\c1ccccc1 here?
A: 17.9 µM

Q: For CNC(=O)COC(=O)c1cc(-c2ccco2)nc2ccccc12, which IC50 is on record?
A: 3.16 µM

Q: Which IC50 does the source give for CN1CCN(c2ccc(Cl)cc2NC(=O)c2ccc(S(=O)(=O)N3CCCCCC3)cc2)CC1 here?
A: 3.89 µM

Q: Which IC50 does the source give for O=S(=O)(Cc1cc(Cl)nc(-c2ccncc2)n1)c1ccccc1 here?
A: 24.8 µM

Q: With S=c1[nH]nc(-c2cc(-c3ccccc3)n[nH]2)n1/N=C/C(Br)=C/c1ccccc1 as the molecule, how does the IC50 read?
A: 7.38 µM

Q: With Cc1cc(NC(=O)CSc2nc(-c3ccc(F)cc3)cs2)no1 as the molecule, how does the IC50 read?
A: > 54 µM

Q: With Oc1ccc(/C=N/Nc2ccnc3cc(Cl)ccc23)cc1O as the molecule, how does the IC50 read?
A: 1.99 µM

Q: With COc1cc2c(ccc3cc(OC)c(OC)c(O)c32)cc1O as the molecule, how does the IC50 read?
A: < 0.4 µM

Q: For Cc1ccc(/C=C/C(=O)NCc2ccccn2)o1, which IC50 is on record?
A: 4.93 µM

Q: With NC(=S)n1[nH]c(-c2ccc([N+](=O)[O-])cc2)c(N=Nc2cccc(Cl)c2)c1=O as the molecule, how does the IC50 read?
A: 1.48 µM

Q: COc1ccc(/C=N/NC(=O)c2cc(O)c(O)c(O)c2)cc1Cn1cc([N+](=O)[O-])cn1 was tested. Which IC50 did it give?
A: < 0.4 µM

Q: CCC1=NNc2cccc3c(OC)ccc1c23 was tested. Which IC50 did it give?
A: > 54 µM

Q: With Cc1c(Cc2ccccc2)c(=O)oc2c(O)c(O)ccc12 as the molecule, how does the IC50 read?
A: 33.9 µM

Q: With C/C(=N\NC(=O)c1cccc(N/N=C(\C)c2ccco2)c1)c1ccco1 as the molecule, how does the IC50 read?
A: 2.88 µM

Q: Which IC50 does the source give for O=C(O)c1cc(-c2ccc(/C=C3\NC(=O)N(c4ccccc4)C3=O)o2)ccc1Cl here?
A: > 54 µM

Q: With CCOC(=O)C1CCN(C(=O)Nc2ccc3nc(-c4ccco4)c(-c4ccco4)nc3c2)CC1 as the molecule, how does the IC50 read?
A: 0.932 µM

Q: For COc1ccc(C(c2c(O)ccc3ccccc23)N2CCOCC2)c(OC)c1 (stereo unspecified), which IC50 is on record?
A: < 0.4 µM

Q: How did the IC50 turn out when O=C1Oc2ccccc2C(=O)/C1=C/c1ccccc1O was run?
A: 3.62 µM

Q: For CC(=O)c1sc2nc(CSc3nnnn3-c3ccccc3)[nH]c(=O)c2c1C, which IC50 is on record?
A: 0.93 µM

Q: For CN(C)c1ccc(NC(=O)c2cn(-c3ccccc3)nc2-c2cccs2)cc1, which IC50 is on record?
A: > 54 µM

Q: How did the IC50 turn out when Cc1ccccc1C(=O)Nc1nc(-c2cccnc2)cs1 was run?
A: < 0.4 µM

Q: For CCN(CC)C(=O)COC(=O)c1cc(-c2ccco2)nc2ccccc12, which IC50 is on record?
A: < 0.4 µM

Q: Which IC50 does the source give for Cc1ccc(N2C(=O)NC(=O)/C(=C/c3ccoc3)C2=O)cc1 here?
A: 4.36 µM

Q: With Cc1nc(NC(=O)c2ccco2)sc1-c1csc(Nc2ccc(Cl)cc2Cl)n1 as the molecule, how does the IC50 read?
A: 1.24 µM

Q: For COc1cc(NCCC(=O)c2cccs2)c(OC)cc1Cl, which IC50 is on record?
A: > 54 µM

Q: How did the IC50 turn out when CCCSC1=N/C(=C\C=C\c2ccco2)C(=O)S1 was run?
A: 3.1 µM

Q: How did the IC50 turn out when CC(=O)N1C(=O)/C(=C2\SC(=S)N(NC(=O)c3ccc(O)cc3)C2=O)c2ccccc21 was run?
A: 1.55 µM

Q: COc1ccc(-c2ccc3c(n2)sc2c(=O)[nH]c(=O)[nH]c23)cc1OC was tested. Which IC50 did it give?
A: < 0.4 µM

Q: CC(=O)Nc1sc(N/N=C\c2ccc(O)cc2)nc1-c1cccs1 was tested. Which IC50 did it give?
A: 1.07 µM

Q: How did the IC50 turn out when O=C(Nc1ccc2nc3ccccc3nc2c1)c1ccccc1 was run?
A: 29.6 µM
